Source: US11331299B2, “Medicinal use of serrulatane diterpenes” (The University of Sydney, priority 2016, dated 2022)
Read-outs that look alike come from different tables or passages of the source.

Key:
[1] = target: UTX (h) (Homo sapiens, UniProt O15550); test: Epigenetic enzyme assay, Demethylases (KDMs); type: biochemical; conditions: for inhibition at 10 µM: read-out: % Inhibition of Control Values
[2] = target: HDAC4 (h) (Homo sapiens, UniProt P56524); test: Epigenetic enzyme assay, Histone deacetylase (HDACs); type: biochemical; conditions: read-out: % Inhibition of Control Values
[3] = target: DOT1L (h) (Homo sapiens, UniProt Q8TEK3); test: Epigenetic enzyme assay, Methyltransferases (MTs); type: biochemical; conditions: read-out: % Inhibition of Control Values
[4] = target: EZH2/EED/SUZ12 (h) (PRC2 complex) (Homo sapiens, UniProt Q15910); test: Epigenetic enzyme assay, Methyltransferases (MTs); type: biochemical; conditions: read-out: % Inhibition of Control Values
[5] = target: T1, Nicotinamide N-methyltransferase (h) (Homo sapiens, UniProt P40261); test: Epigenetic enzyme assay, Small molecule methyltransferases; type: biochemical; conditions: read-out: % Inhibition of Control Values
T1 sequence (P40261 1-264): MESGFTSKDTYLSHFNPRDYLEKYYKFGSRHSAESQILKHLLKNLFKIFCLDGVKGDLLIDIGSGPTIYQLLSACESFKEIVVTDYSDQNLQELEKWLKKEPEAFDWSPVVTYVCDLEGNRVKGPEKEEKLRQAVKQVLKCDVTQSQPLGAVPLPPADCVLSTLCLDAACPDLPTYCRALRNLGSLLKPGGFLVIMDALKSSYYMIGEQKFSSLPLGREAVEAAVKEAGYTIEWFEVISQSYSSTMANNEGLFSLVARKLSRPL

[6] = target: T2, Angiotensin AT2 (Homo sapiens, UniProt P50052); test: Angiotensin AT2 radio ligand binding; conditions: assay year 2015, read-out: % Control Response
T2 construct: expressed in transfected cells; host or cells: CHO-K1 cells
T2 sequence (P50052 1-363): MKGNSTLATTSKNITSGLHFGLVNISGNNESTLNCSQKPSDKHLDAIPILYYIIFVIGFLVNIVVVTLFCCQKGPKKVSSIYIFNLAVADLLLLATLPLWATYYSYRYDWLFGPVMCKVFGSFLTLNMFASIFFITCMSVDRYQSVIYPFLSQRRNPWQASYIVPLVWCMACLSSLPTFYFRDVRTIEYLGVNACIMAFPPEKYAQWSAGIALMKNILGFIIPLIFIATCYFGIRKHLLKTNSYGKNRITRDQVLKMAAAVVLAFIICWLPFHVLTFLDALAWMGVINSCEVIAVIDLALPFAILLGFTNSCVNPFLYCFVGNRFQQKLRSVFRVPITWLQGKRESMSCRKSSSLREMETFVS
Protocol: (§1) The in vitro pharmacological studies were conducted by Eurofins PanLab (Taiwan) using the parameters shown in Table 13 with respect to appropriate literature references.

[7] = target: T3, Myeloperoxidase (Homo sapiens, UniProt P05164); test: Myeloperoxidase; type: biochemical
T3 construct: Human PMN leukocytes; from tissue; host or cells: human PMN leukocytes
T3 sequence (P05164 49-745): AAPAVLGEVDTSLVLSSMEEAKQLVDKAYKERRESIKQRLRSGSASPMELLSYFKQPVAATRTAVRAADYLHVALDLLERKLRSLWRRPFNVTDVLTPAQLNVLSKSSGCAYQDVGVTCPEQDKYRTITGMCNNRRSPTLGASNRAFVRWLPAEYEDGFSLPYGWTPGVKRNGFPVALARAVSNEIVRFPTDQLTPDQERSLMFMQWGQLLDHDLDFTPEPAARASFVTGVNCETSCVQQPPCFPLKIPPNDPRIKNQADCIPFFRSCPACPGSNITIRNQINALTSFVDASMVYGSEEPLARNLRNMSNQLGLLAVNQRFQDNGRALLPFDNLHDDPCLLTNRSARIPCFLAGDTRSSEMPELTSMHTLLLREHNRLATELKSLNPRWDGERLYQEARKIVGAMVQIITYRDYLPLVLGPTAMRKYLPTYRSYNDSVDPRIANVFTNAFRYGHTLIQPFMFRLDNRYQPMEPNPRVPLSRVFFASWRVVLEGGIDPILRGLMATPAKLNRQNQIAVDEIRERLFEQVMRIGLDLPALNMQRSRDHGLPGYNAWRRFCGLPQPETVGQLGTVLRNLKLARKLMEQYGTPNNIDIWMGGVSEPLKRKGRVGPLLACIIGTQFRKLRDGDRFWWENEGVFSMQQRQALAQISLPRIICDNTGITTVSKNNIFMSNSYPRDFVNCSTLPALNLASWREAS
Protocol: as §1

[8] = target: CYP3A (Homo sapiens, UniProt P08684); test: Cytochrome P450 Inhibition (CYP panel); type: in vitro ADME; conditions: probe testosterone; for inhibition at 1 µM: human liver microsomes; for inhibition at 10 µM: liver microsomes
[9] = assay year 2014, read-out: % Control Response
[10] = assay year 2015, read-out: % Control Response
[11] = CYP3A (testosterone sub.), Human liver microsomes, read-out: % Inhibition of Control Values

Sequence of UTX (h) (O15550 whole entry): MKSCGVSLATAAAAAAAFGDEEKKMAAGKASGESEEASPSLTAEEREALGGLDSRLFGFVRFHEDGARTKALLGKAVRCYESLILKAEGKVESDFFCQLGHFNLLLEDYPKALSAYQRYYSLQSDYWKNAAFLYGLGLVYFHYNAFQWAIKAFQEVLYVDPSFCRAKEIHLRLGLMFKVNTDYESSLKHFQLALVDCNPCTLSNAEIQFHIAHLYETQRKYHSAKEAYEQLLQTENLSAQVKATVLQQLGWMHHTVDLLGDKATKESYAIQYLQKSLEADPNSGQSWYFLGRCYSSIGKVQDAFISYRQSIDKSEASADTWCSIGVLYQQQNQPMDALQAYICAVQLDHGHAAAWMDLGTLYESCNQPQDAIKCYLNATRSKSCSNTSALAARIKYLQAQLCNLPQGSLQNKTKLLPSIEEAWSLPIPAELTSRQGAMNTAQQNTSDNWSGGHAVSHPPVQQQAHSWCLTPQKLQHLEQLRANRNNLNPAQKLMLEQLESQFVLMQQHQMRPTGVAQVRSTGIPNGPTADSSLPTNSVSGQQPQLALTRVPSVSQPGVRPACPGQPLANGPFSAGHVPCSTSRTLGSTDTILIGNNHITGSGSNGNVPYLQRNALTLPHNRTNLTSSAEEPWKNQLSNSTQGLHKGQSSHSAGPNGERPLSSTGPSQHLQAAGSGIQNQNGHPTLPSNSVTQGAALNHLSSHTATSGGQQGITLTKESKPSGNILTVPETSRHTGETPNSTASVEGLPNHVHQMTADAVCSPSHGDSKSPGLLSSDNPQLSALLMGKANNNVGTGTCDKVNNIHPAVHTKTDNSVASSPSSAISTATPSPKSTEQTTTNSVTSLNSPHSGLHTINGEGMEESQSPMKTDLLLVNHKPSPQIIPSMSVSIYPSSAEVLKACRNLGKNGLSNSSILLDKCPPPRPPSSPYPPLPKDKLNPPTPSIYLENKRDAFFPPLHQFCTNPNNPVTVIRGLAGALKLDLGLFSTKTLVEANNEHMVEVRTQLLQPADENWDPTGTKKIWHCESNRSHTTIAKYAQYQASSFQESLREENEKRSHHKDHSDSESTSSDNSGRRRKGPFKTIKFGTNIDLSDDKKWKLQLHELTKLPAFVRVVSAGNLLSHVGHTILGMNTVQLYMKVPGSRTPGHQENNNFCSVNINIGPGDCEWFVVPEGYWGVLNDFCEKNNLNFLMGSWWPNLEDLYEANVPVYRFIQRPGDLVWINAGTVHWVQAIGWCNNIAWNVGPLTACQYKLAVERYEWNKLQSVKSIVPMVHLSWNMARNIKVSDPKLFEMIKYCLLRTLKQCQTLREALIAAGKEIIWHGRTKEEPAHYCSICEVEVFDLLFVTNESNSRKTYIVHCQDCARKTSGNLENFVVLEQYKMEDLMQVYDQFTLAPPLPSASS
Sequence of CYP3A (P08684 2-503): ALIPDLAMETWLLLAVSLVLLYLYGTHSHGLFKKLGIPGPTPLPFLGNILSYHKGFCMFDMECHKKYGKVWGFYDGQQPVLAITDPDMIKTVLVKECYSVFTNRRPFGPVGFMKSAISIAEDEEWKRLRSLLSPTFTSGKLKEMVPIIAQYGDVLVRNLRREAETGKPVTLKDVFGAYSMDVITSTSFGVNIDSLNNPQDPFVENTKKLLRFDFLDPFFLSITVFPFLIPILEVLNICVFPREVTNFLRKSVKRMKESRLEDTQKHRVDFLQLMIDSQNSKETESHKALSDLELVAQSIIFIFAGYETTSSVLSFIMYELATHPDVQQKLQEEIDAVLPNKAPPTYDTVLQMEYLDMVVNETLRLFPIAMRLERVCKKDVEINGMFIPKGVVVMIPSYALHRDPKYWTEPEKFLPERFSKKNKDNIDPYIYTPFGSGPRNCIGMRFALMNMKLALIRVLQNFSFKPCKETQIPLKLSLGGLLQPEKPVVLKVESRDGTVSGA
Sequence of DOT1L (h) (Q8TEK3 whole entry): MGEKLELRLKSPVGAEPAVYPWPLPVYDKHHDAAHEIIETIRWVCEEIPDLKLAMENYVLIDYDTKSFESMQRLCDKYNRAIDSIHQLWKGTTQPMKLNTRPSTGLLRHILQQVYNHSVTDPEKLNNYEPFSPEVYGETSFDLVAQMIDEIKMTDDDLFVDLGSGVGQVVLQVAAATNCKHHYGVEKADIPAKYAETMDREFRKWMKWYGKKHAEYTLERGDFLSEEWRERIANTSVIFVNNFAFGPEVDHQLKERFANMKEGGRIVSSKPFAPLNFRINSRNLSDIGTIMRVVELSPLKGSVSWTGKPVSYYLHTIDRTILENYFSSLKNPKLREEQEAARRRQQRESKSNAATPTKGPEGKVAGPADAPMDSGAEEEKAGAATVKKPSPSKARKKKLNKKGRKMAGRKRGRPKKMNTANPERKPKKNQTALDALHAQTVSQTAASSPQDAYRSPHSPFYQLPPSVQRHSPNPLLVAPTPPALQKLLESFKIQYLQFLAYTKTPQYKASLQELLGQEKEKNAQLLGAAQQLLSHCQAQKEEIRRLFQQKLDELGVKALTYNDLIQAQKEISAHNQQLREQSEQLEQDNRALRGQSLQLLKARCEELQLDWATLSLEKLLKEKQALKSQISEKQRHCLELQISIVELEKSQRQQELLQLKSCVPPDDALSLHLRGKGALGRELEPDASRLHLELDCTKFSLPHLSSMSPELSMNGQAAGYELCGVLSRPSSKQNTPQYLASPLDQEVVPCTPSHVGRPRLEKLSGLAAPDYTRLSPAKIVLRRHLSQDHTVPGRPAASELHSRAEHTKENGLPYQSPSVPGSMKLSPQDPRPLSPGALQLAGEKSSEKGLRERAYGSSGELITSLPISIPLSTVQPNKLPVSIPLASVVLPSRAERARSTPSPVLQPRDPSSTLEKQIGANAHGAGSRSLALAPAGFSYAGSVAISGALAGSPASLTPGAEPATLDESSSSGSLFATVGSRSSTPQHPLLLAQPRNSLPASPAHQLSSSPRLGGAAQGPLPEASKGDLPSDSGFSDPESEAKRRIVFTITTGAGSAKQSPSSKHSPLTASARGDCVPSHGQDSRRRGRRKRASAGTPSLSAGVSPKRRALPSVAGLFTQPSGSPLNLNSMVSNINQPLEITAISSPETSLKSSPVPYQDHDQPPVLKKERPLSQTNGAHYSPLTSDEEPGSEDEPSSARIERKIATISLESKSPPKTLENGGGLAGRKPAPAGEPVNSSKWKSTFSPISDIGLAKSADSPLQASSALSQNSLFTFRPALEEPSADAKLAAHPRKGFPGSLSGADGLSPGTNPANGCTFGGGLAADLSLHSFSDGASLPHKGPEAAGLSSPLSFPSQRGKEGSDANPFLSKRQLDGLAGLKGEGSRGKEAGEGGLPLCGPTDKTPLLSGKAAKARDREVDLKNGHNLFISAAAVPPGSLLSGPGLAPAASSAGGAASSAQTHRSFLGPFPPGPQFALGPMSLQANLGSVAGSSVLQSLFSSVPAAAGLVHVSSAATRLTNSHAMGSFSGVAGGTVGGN
Sequence of HDAC4 (h) (P56524 whole entry): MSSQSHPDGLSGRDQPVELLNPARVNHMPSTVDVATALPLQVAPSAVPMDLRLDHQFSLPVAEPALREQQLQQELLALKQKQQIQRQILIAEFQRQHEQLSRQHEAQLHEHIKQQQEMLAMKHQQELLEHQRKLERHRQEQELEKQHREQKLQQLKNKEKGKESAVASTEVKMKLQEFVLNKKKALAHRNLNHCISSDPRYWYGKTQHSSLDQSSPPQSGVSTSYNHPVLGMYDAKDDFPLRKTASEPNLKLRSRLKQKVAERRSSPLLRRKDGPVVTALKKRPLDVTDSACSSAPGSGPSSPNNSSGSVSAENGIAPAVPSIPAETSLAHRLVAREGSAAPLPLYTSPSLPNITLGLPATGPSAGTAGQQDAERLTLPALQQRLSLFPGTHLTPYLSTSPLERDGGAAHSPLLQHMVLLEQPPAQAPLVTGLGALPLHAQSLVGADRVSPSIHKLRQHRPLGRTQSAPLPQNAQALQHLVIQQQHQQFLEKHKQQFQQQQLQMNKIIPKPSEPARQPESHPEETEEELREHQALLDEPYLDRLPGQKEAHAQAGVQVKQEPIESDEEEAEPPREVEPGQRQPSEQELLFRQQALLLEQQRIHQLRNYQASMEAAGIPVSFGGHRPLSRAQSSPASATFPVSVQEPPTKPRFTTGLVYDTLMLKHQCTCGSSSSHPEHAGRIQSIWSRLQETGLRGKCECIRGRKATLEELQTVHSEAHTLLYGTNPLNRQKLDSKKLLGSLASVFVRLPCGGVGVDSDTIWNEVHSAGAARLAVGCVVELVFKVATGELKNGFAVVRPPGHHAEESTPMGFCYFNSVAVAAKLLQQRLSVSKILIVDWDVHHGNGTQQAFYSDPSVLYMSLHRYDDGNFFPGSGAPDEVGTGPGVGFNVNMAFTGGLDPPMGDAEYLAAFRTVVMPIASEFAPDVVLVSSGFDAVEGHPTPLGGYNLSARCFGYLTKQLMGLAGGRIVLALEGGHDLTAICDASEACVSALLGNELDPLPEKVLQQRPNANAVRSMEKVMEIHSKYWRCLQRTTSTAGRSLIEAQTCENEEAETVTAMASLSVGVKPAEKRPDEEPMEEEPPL

CC(C)=CCC[C@H](CO)[C@@H]1CC[C@@H](C)c2c1cc(C)c(O)c2O [Compound 1, 7,8,18-trihydroxyserrulat-14-ene]
% Inhibition of Control Values ([1]; 10 μM): significant inhibitory activity
inhibition at 10 µM ([1]; 10 μM): 68%
IC50 ([1]; Table 11, inhibition/concentration-response curve): 6.7 µM
inhibition at 10 µM [2]: -73%
inhibition at 10 µM [3]: -5%
inhibition at 10 µM [4]: 19%
inhibition at 10 µM [5]: 13%
remaining activity at 10 µM [6]: 29%
% Control Response ([7]; 10 μM, assay year 2014): inhibited the activity
remaining activity at 10 µM [7, 9]: 52%
remaining activity at 10 µM [7, 10]: 27%
inhibition at 1 µM ([8]; read-out: % inhibition): 7 to 20%
inhibition at 1 µM [8, 11]: 7%
inhibition at 10 µM [8, 11]: 77%

CC(C)=CCC[C@@H]1C(O)Oc2c(C)cc(O)c3c2[C@H]1CC[C@H]3C (some centres unmarked) [Compound 2, 5,18-epoxyserrulat-14-en-8,18-diol]
inhibition at 10 µM ([1]; 10 μM): 5%
inhibition at 10 µM [2]: -20%
inhibition at 10 µM [3]: 18%
inhibition at 10 µM [4]: 26%
inhibition at 10 µM [5]: -2%
remaining activity at 10 µM [6]: 18%
remaining activity at 10 µM [7, 9]: 5%
remaining activity at 10 µM [7, 10]: 1%
inhibition at 1 µM ([8]; read-out: % inhibition): 7 to 20%
inhibition at 1 µM [8, 11]: 17%
inhibition at 10 µM [8, 11]: 57%

CC(C)=CCC[C@@H]1COc2c(C)cc(O)c3c2[C@H]1CC[C@H]3C [Compound 3, 5,18-epoxy-8-hydroxyserrulat-14-ene]
inhibition at 10 µM ([1]; 10 μM): 27%
inhibition at 10 µM [2]: -11%
inhibition at 10 µM [3]: 13%
inhibition at 10 µM [4]: 4%
inhibition at 10 µM [5]: -2%
remaining activity at 10 µM [6]: 9%
remaining activity at 10 µM [7, 10]: -7%

CC(C)=CCC[C@H](C)[C@@H]1CC[C@@H](C)c2c1cc(C)c(O)c2O [Compound 4, 7,8-dihydroxyserrulat-14-ene]
inhibition at 1 µM ([8]; read-out: % inhibition): 7 to 20%
inhibition at 1 µM [8, 11]: 20%
inhibition at 10 µM [8, 11]: 48%
